Experimental data from publication PMC7143549, “Anticancer Activities of Meroterpenoids Isolated from the Brown Alga Cystoseira usneoides against the Human Colon Cancer Cells HT-29” (Foods, 2020).
Values after ≈ are worked out from the molar mass of the structure shown.

Key:
HT-29 colon cancer cells = assay: Cell cycle analysis by flow cytometry (PI); type: cell-based, human; details: 24 h; 30 μg/mL of 1, 2, 5, 6, 7, 8 and 90 μg/mL of 3 and 4 (Figure 4B)
Protocol: HT-29 cells (1 × 10^6 cells/well) were seeded in six-well plates and incubated for 24 h, followed by treatment with AMTs dissolved in DMSO (final concentrations of 10, 20, and 30 µg/mL for compounds 1, 2, 5, 6, 7, and 8, and 30, 60, and 90 µg/mL for compounds 3 and 4, and always below 0.05% DMSO) and 24 h of additional incubation. Colchicine (final concentration of 0.2 μg/mL) was used as positive control. The cells were then washed, harvested with trypsin, and centrifuged at 1500 rpm (5 min, 25 °C). The resulting pellet was fixed with ice-cold 70% ethanol (1 mL/10^6 cells) and the samples were stored at −4°C overnight. After fixation, the cells were washed with PBS, stained with PBS containing 5 mg/mL of RNase A, and incubated for 48 h at 4 °C. Subsequently, 50 μL of 0.1 mg/mL of IP was added and incubated for 1 h at 4 °C. The relative DNA content per cell was analyzed using a Cytomics FC500 flow cytometer (Beckman Coulter, Indianapolis, IN, USA). The data acquisition was performed with the DML program and the analysis of the acquired data with the CXP Software (Beckman Coulter, Indianapolis, IN, USA).

[1] = tested on: normal human colonic epithelial cells CCD 841 CoN; assay: Sulforhodamine B (SRB) cell viability assay, CCD 841 CoN; type: cell-based; details: normal colon cells, 72 h of treatment, mean ± SE of three experiments, read-out: IC50 CCD841 CoN
Protocol: Cell viability was quantified using the Sulforhodamine B assay described by Skehan et al.. Cells were plated with a density of 5 × 10^3 (HT-29) and 1 × 10^4 (CCD 841 CoN) cells/well and allowed to attach at 37 °C in an atmosphere with 5% CO2. After 24 h, the AMTs dissolved in DMSO were added to the cells (final concentrations of 10, 20, 30, and 50 µg/mL and less than 0.05% of DMSO) and the plates were incubated for 72 h. Then, the cells were fixed by adding 50 μL of TCA (50%) to each well and the plates were maintained for 1 h at 4 °C. The plates were washed five times with deionized water, air-dried, and stained for 30 min at room temperature with 100 μL of 0.4% (w/v) SRB prepared in 1% (v/v) acetic acid. The plates were rinsed quickly five times with 1% acetic acid to remove unbound dye, followed by air-drying. The bound dye was solubilized in 2 mM Tris base (100 μL/well) for 5 min. Optical densities were read on a microplate reader (Spectrophotometer LabsystemsMultiskan EX, λ 492 nm). Three independent assays were conducted, each one in duplicate. A standard curve was constructed for each experiment and used for converting the measured optical density values into numbers of viable cells/well. The inhibition rate was used to evaluate the cell viability and its algorithm was the following formula: ((ODcontrol − ODtreatment)/ODcontrol) × 100; OD, optical density. The OD492 for control cells was taken as 100% viability. The half maximal inhibitory concentration (IC50) was calculated. The selectivity index (SI) of each compound was calculated as IC50 of the compound against the CCD 841 CoN normal cell line/IC50 of the same compound against the HT-29 cancer cell line.

HT-29 cells [2] = assay: Cultrex 96 well BME cell invasion assay; type: cell-based; details: Homo sapiens, 24 h; for inhibition at 10 µg/mL: 10 μg/mL
Protocol: The invasion activities were measured using Trevigen’s Cultrex® 96 Well Cell Invasion Assays, as previously described. Briefly, about 50 μL of 1X basement membrane extract (BME) in coat buffer was added to each well. After incubation for 4 h at 37 °C in a 5% CO2 atmosphere, the HT-29 cells at 50,000 cells/50μL in serum free McCoy’s medium were added per well to the top chamber containing the tested compound (10 µg/mL for 1, 2, 5, 6, 7, and 8, and 30 µg/mL for compounds 3 and 4). About 150 μL of McCoy’s medium was then added to the lower chamber containing 10% FBS and penicillin/streptomycin as chemoattractants. Cells were allowed to migrate to the lower chamber in a humidified atmosphere containing 5% CO2 at 37 °C for 24 h. Afterwards, top and bottom chambers were aspirated and washed with washing buffer supplemented with the kit. About 100 μL of Cell Dissociation Solution/Calcein-AM was added to each bottom chamber well and incubated for 1 h at 37 °C in CO2 incubator. The cells internalized calcein-AM and the intracellular esterases cleaved the AM moiety to generate free calcein. Fluorescence of the samples was determined at 485 nm excitation, 520 nm emission, using ELISA plate reader (BioTek Instruments, Winooski, VT, USA). The number of cells that had invaded through the BME coat was calculated using a standard curve. Results were expressed as percentage of invasion (%) compared to the control.

HT-29 cells [3] = assay: Wound migration assay; type: cell-based, human; details: 24 h, wound-healing; for inhibition at 10 µg/mL: Homo sapiens, HT-29, read-out: inhibition of cell migration
Protocol: For cell migration assay, HT-29 cells were seeded in six-well culture plates and allowed to grow to 80%–90% confluence for the experiment. After aspirating the medium, similar sized wounds were performed in the monolayer cells using a sterile micropipette tip. Wounded monolayer cells were washed three times with PBS to remove cell debris and then replaced with complete McCoy’s medium. HT-29 cells were treated with the AMTs (10 µg/mL for compounds 1, 2, 5, 6, 7, and 8, and 30 µg/mL for compounds 3 and 4) and incubated for 24h. For the image analysis of the effect of each treatment on cell migration, the wounded area was photographed immediately after scratching and after 24 h. The level of cell migration was determined using NIH Image software (Image J 1.44g, Wayne Rasband, USA) and then expressed as a percentage of wound closure area using the equation: Migration rate (%) = [(wound area at 0 h − wound area at 24 h)/wound area at 0 h] × 100%.

SMILES: COc1c(C)cc(O)cc1C/C=C(\C)CC(=O)/C=C(/C)CCCC(C)(O)C(=O)/C=C/C(C)(C)O (stereo not drawn) [Compound 1, usneoidone Z]
- accumulation of cells at the G2/M phase (cell cycle arrest, words) (HT-29 colon cancer cells): significant cell cycle arrest in the G2/M
- IC50 [1]: 46.4 ± 3.87 µg/mL (≈ 98.2 µM)
- inhibition at 10 µg/mL (HT-29 cells [2]): > 40%
- inhibition at 10 µg/mL (HT-29 cells [3]; 10 μg/mL): 28.4%

SMILES: COc1c(C)cc(O)cc1C/C=C(\C)CC(=O)/C=C(\C)CCCC(C)(O)C(=O)/C=C/C(C)(C)O (stereo not drawn) [Compound 2, 11-hydroxy-1′-O-methylamentadione]
- accumulation of cells at the G2/M phase (cell cycle arrest, words) (HT-29 colon cancer cells): significant
- IC50 [1]: 21.4 ± 2.5 µg/mL (≈ 45.3 µM)
- inhibition of cell migration (HT-29 cells [3]; 10 μg/mL): no significant effects

SMILES: COc1c(C)cc(O)cc1C/C=C(\C)CC(=O)/C=C(\C)CCCC(C)=O [Compound 3, cystomexicone B]
- accumulation of cells at the G2/M phase (cell cycle arrest, words) (HT-29 colon cancer cells): significant
- IC50 [1]: > 50 µg/mL
- inhibition at 30 µg/mL (HT-29 cells [2]; 30 μg/mL (methods, Figure 5C)): > 40%
- inhibition of cell migration (HT-29 cells [3]; 30 μg/mL (methods, Figure 5B)): no significant effects

SMILES: COc1c(C)cc(O)cc1/C=C/C(C)(O)CC(=O)/C=C(/C)CCCC(C)C(=O)/C=C/C(C)(C)O (stereo not drawn) [Compound 7, cystodione A]
- accumulation of cells at the G2/M phase (cell cycle arrest, words) (HT-29 colon cancer cells): significant
- IC50 [1]: > 50 µg/mL
- inhibition at 10 µg/mL (HT-29 cells [3]; 10 μg/mL): 30.7%

SMILES: COc1c(C)cc(O)cc1/C=C/C(C)(O)CC(=O)/C=C(\C)CCCC(C)C(=O)/C=C/C(C)(C)O (stereo not drawn) [Compound 8, cystodione B]
- accumulation of cells at the G2/M phase (cell cycle arrest, words) (HT-29 colon cancer cells): not significant
- IC50 [1]: 31.9 ± 7.51 µg/mL (≈ 67.5 µM)
- inhibition at 10 µg/mL (HT-29 cells [2]): > 40%
- inhibition at 10 µg/mL (HT-29 cells [3]; 10 μg/mL): 59.1%
